Results on 15 compounds are retold here after patent publication US7902227B2, “C-7 isoxazolinyl quinolone / naphthyridine derivatives useful as antibacterial agents” (Janssen Pharmaceutica NV., priority 2008, dated 2011).

By MIC is commonly meant the smallest concentration in the dilution series that meets the test's criterion for growth inhibition.

Values after ≈ are worked out from the molar mass of the structure shown.

Holding throughout (type): cell-based
Experiment [1] deals with Staphylococcus aureus OC4172. In words: In vitro antibacterial activity (MIC), microdilution broth method (NCCLS), strain A. Conditions: cation adjusted Mueller-Hinton broth, 35° C., 16-20 hours. The procedure: (§1) Minimal inhibitory concentration (MIC) has been an indicator of in vitro antibacterial activity widely used in the art. The in vitro antimicrobial activity of representative compounds of the present invention was determined by the microdilution broth method following the test method from the National Committee for Clinical Laboratory Standards (NCCLS). This method is described in the NCCLS Document M7-A4, Vol. 17, No. 2, “Methods for Dilution Antimicrobial Susceptibility Test for Bacteria that Grow Aerobically—Fourth Edition”, which is incorporated herein by reference.
(§2) In this method two-fold serial dilutions of drug in cation adjusted Mueller-Hinton broth are added to wells in microdilution trays. The test organisms are prepared by adjusting the turbidity of actively growing broth cultures so that the final concentration of test organism after it is added to the wells is approximately 5×10^4 CFU/well.
(§3) Following inoculation of the microdilution trays, the trays are incubated at 35° C. for 16-20 hours and then read. […] The amount of growth in the wells containing the test compound is compared with the amount of growth in the growth-control wells (no test compound) used in each tray. As set forth in Table 4, representative compounds of the present invention were tested against a variety of pathogenic bacteria resulting in a range of activities depending on the organism tested.
In general terms: Dilution methods test growth across graded concentrations, often in twofold steps.

Experiment [2] relates to strain B, fluoroquinolone-resistant clinical isolate of Streptococcus pneumoniae. In words: In vitro antibacterial activity (MIC), microdilution broth method (NCCLS), strain B. The conditions noted are these: read-out: In vitro Antibacterial Activity MIC, B. The procedure: as §1, §2, §3
The test system of experiment [3] is strain C, fluoroquinolone-resistant clinical isolate of Streptococcus pneumoniae. In words: In vitro antibacterial activity (MIC), microdilution broth method (NCCLS), strain C. Conditions: read-out: In vitro Antibacterial Activity MIC, C. The method, then:
as §1, §2, §3

For experiment [4], the system named is strain D, fluoroquinolone-resistant clinical isolate of Streptococcus pneumoniae. In words: In vitro antibacterial activity (MIC), microdilution broth method (NCCLS), strain D. The conditions noted are these: read-out: In vitro Antibacterial Activity MIC, D. The method, then: as §1, §2, §3
Experiment [5] concerns Streptococcus pneumoniae ATCC 49619. In words: In vitro antibacterial activity (MIC), microdilution broth method (NCCLS), strain E. Conditions: ATCC49619, 35° C., 16-20 hours. The procedure:
as §1, §2, §3

With `CCOC(=O)C1=NOC2CN(c3nc4c(cc3F)c(=O)c(C(=O)O)cn4C3CC3)CC12` (stereo not shown) [ID No. 116, 1-Cyclopropyl-7-(3-ethoxycarbonyl-3a,4,6,6a-tetrahydro-pyrrolo[3,4-d]isoxazol-5-yl)-6-fluoro-4-oxo-1,4-dihydro-[1,8]naphthyridine-3-carboxylic acid], the MIC in experiment [1] is 0.12 µg/mL (≈ 0.279 µM); in experiment [2], above 16 µg/mL; in experiment [3] it was above 16 µg/mL; in experiment [4] it was above 16 µg/mL; in experiment [5] it was 4 µg/mL (≈ 9.29 µM).

For the compound `C[C@H]1COc2c(N3CC4ON=C(CN)C4C3)c(F)cc3c(=O)c(C(=O)O)cn1c23` (stereo partly shown) [ID No. 204], the MIC was 0.25 µg/mL (≈ 0.621 µM) in experiment [1], above 16 µg/mL in experiment [3], above 16 µg/mL in experiment [4] and 16 µg/mL (≈ 39.8 µM) in experiment [5].

Consider `COc1c(N2C[C@@H]3ON=C(c4ccccn4)[C@@H]3C2)c(F)cc2c(=O)c(C(=O)O)cn(C3CC3)c12` (relative stereo) [ID No. 122, 7-[cis-3-(2-pyridyl)-3a,4,6,6a-tetrahydropyrrolo[3,4-d]isoxazol-5-yl]-1-cyclopropyl-8-methoxy-6-fluoro-4-oxo-1,4-dihydroquinoline-3-carboxylic acid], for which the MIC in experiment [1] was below 0.12 µg/mL; in experiment [2] it was 16 µg/mL (≈ 34.4 µM); in experiment [3] it was 16 µg/mL (≈ 34.4 µM); in experiment [4], 2 µg/mL (≈ 4.31 µM); in experiment [5] it was 1 µg/mL (≈ 2.15 µM).

As for `O=C(O)c1cn(-c2ccc(F)cc2F)c2nc(N3CC4ON=C(c5cccnc5)C4C3)c(F)cc2c1=O` (stereo not shown) [ID No. 105, 1-(2,4-Difluoro-phenyl)-6-fluoro-4-oxo-7-(3-pyridin-3-yl-3a,4,6,6a-tetrahydro-pyrrolo[3,4-d]isoxazol-5-yl)-1,4-dihydro-[1,8]naphthyridine-3-carboxylic acid], the MIC in experiment [1] worked out at 0.06 µg/mL (≈ 0.118 µM); in experiment [2], 0.5 µg/mL (≈ 0.985 µM); in experiment [3], 2 µg/mL (≈ 3.94 µM); in experiment [4] it was 2 µg/mL (≈ 3.94 µM); in experiment [5], 1 µg/mL (≈ 1.97 µM).

Take `O=C(O)c1cn(-c2ccc(F)cc2F)c2nc(N3CC4ON=C(CO)C4C3)c(F)cc2c1=O` (stereo not shown) [ID No. 107, 1-(2,4-Difluoro-phenyl)-6-fluoro-7-(3-hydroxymethyl-3a,4,6,6a-tetrahydro-pyrrolo[3,4-d]isoxazol-5-yl)-4-oxo-1,4-dihydro-[1,8]naphthyridine-3-carboxylic acid]: the MIC is 0.12 µg/mL (≈ 0.261 µM) in experiment [1]; above 16 µg/mL in experiment [2]; above 16 µg/mL in experiment [3]; above 16 µg/mL in experiment [4]; 2 µg/mL (≈ 4.34 µM) in experiment [5].

In the case of `COc1c(N2C[C@@H]3ON=C(c4ccc(C(F)(F)F)nc4)[C@@H]3C2)c(F)cc2c(=O)c(C(=O)O)cn(C3CC3)c12` (relative stereo) [ID No. 121, 7-[cis-3-(6-Trifluoromethyl-3-pyridyl)-3a,4,6,6a-tetrahydropyrrolo[3,4-d]isoxazol-5-yl]-1-cyclopropyl-8-methoxy-6-fluoro-4-oxo-1,4-dihydroquinoline-3-carboxylic acid], the MIC was 0.25 µg/mL (≈ 0.47 µM) in experiment [1]; 0.16 µg/mL (≈ 0.3 µM) in experiment [2]; above 16 µg/mL in experiment [3]; 8 µg/mL (≈ 15 µM) in experiment [4]; 4 µg/mL (≈ 7.51 µM) in experiment [5].

Regarding `COc1ccc(C2=NOC3CN(c4c(F)cc5c(=O)c(C(=O)O)cn(-c6nc(N)c(F)cc6F)c5c4Cl)CC23)cc1` (stereo not shown) [ID No. 133, 1-(6-Amino-3,5-difluoro-pyridin-2-yl)-8-chloro-6-fluoro-7-[3-(4-methoxy-phenyl)-3a,4,6,6a-tetrahydro-pyrrolo[3,4-d]isoxazol-5-yl]-4-oxo-1,4-dihydro-quinoline-3-carboxylic acid], the MIC was 0.25 µg/mL (≈ 0.427 µM) in experiment [1], 8 µg/mL (≈ 13.7 µM) in experiment [3], 16 µg/mL (≈ 27.3 µM) in experiment [4] and 2 µg/mL (≈ 3.41 µM) in experiment [5].

`O=C(O)c1cn(C2CC2)c2nc(N3CC4ON=C(c5ccc(Cl)cc5)C4C3)c(F)cc2c1=O` (stereo not shown) [ID No. 110, 7-[3-(4-Chloro-phenyl)-3a,4,6,6a-tetrahydro-pyrrolo[3,4-d]isoxazol-5-yl]-1-cyclopropyl-6-fluoro-4-oxo-1,4-dihydro-[1,8]naphthyridine-3-carboxylic acid]: the MIC stood at 0.06 µg/mL (≈ 0.128 µM) in experiment [1], 8 µg/mL (≈ 17.1 µM) in experiment [3] and 0.5 µg/mL (≈ 1.07 µM) in experiment [5].

Take `COc1ccc(C2=NO[C@H]3CN(c4c(F)cc5c(=O)c(C(=O)O)cn(C6CC6)c5c4OC)C[C@@H]23)cc1` (relative stereo) [ID No. 120, 7-[cis-3-(4-Methoxyphenyl)-3a,4,6,6a-tetrahydropyrrolo[3,4-d]isoxazol-5-yl]-1-cyclopropyl-8-methoxy-6-fluoro-4-oxo-1,4-dihydroquinoline-3-carboxylic acid]: the MIC in experiment [1] stood at 0.06 µg/mL (≈ 0.122 µM); in experiment [3] it was 4 µg/mL (≈ 8.11 µM); in experiment [4], 2 µg/mL (≈ 4.05 µM); in experiment [5], 1 µg/mL (≈ 2.03 µM).

In the case of `COc1ccc(C2=NOC3CN(c4c(F)cc5c(=O)c(C(=O)O)cn([C@@H]6C[C@@H]6F)c5c4OC)CC23)cc1` (relative stereo) [ID No. 126, 7-[cis-3-(4-Methoxyphenyl)-3a,4,6,6a-tetrahydropyrrolo[3,4-d]isoxazol-5-yl]-1-[(1R,2S)-2-fluorocyclopropyl]-6-fluoro-8-methoxy-4-oxo-1,4-dihydro-quinoline-3-carboxylic acid], the MIC in experiment [1] amounted to 0.03 µg/mL (≈ 0.0587 µM); in experiment [3], 4 µg/mL (≈ 7.82 µM); in experiment [4], 2 µg/mL (≈ 3.91 µM); in experiment [5], 0.5 µg/mL (≈ 0.978 µM).

For `COc1ccc(C2=NOC3CN(c4c(F)cc5c(=O)c(C(=O)O)cn6c5c4OC[C@@H]6C)CC23)cc1` (stereo partly drawn) [ID No. 128, 7-[cis-3-(4-Methoxyphenyl)-3a,4,6,6a-tetrahydropyrrolo[3,4-d]isoxazol-5-yl]S-(−)-9,10-difluoro-2,3-dihydro-3-methyl-7-oxo-7H-pyrido-[1,2,3-de][1,4]-benzoxazine-6-carboxylic acid], the MIC in experiment [1] was 0.12 µg/mL (≈ 0.25 µM); in experiment [3], 4 µg/mL (≈ 8.34 µM); in experiment [4], 4 µg/mL (≈ 8.34 µM); in experiment [5], 1 µg/mL (≈ 2.09 µM).

With `COc1c(N2CC3ON=C(CN)C3C2)c(F)cc2c(=O)c(C(=O)O)cn([C@@H]3C[C@@H]3F)c12` (stereo partly shown) [ID No. 203], the MIC in experiment [1] is 0.12 µg/mL (≈ 0.276 µM); in experiment [3], above 16 µg/mL; in experiment [4], above 16 µg/mL; in experiment [5], 2 µg/mL (≈ 4.6 µM).

For the compound `C[C@H]1COc2c(N3CC4ON=C(c5cccnc5)C4C3)c(F)cc3c(=O)c(C(=O)O)cn1c23` (stereo partly drawn) [ID No. 130, 7-[cis-3-(3-pyridyl)-3a,4,6,6a-tetrahydropyrrolo[3,4-d]isoxazol-5-yl]S-(−)-9,10-difluoro-2,3-dihydro-3-methyl-7-oxo-7H-pyrido-[1,2,3-de][1,4]-benzoxazine-6-carboxylic acid], the MIC in experiment [1] stood at 0.25 µg/mL (≈ 0.555 µM); in experiment [3], 16 µg/mL (≈ 35.5 µM); in experiment [4] it was 16 µg/mL (≈ 35.5 µM); in experiment [5] it was 2 µg/mL (≈ 4.44 µM).

As for `COc1c(N2CC3ON=C(CN)C3C2)c(F)cc2c(=O)c(C(=O)O)cn(C3CC3)c12` (stereo not shown) [ID No. 202], the MIC was 0.06 µg/mL (≈ 0.144 µM) in experiment [1], 16 µg/mL (≈ 38.4 µM) in experiment [3], above 16 µg/mL in experiment [4] and 1 µg/mL (≈ 2.4 µM) in experiment [5].

With `O=C(O)c1cn(C2CC2)c2nc(N3CC4ON=C(c5cccnc5)C4C3)c(F)cc2c1=O` (stereo not shown) [ID No. 114, 1-Cyclopropyl-6-fluoro-4-oxo-7-(3-pyridin-3-yl-3a,4,6,6a-tetrahydro-pyrrolo[3,4-d]isoxazol-5-yl)-1,4-dihydro-[1,8]naphthyridine-3-carboxylic acid], the MIC in experiment [1] stood at 0.12 µg/mL (≈ 0.276 µM); in experiment [3] it was 2 µg/mL (≈ 4.59 µM); in experiment [4] it was 8 µg/mL (≈ 18.4 µM); in experiment [5], 1 µg/mL (≈ 2.3 µM).
